The source of these data is article PMC10961089, “Epidermal growth factor receptor inhibition potentiates chemotherapeutics‐mediated sensitization of metastatic breast cancer stem cells” (Cancer Reports, 2024).

Where two headings read alike, the source gives them in different places.

In assay [1] the test system is MDA‐MB‐231. As to the kind of experiment: MTT cytotoxicity assay in MDA-MB-231. The format is cell-based, human. The settings on record: for IC50: 48 h, read-out: IC50 (μM) in MDA‐MB‐231 (mean ± SD). The protocol: (§1) TNBC cell lines (ER^−, PR^−, HER2^−)—MDA‐MB‐231 (ATCC HTB‐26) and MDA‐MB‐468 (ATCC HTB‐132) were procured from ATCC and cultured in Roswell Park Memorial Institute Media (RPMI‐1640) and Dulbecco's Modified Eagle's Medium (DMEM), respectively, supplemented with 10% FBS and 1% Penicillin–Streptomycin solution. Cells were maintained at 5% CO2 at 37°C in a humid atmosphere.[6], [26] The control cell line, Human Embryonic Kidney—HEK‐293 (ATCC CRL‐3216) was also obtained from ATCC and cultured in DMEM.[5], [25]
(§2) To evaluate the cytotoxicity profile of the potential EGFR inhibitors (compounds) against TNBC cell lines—MDA‐MB‐231, MDA‐MB‐468, and control cell line HEK293, cells were seeded at a cell density of 5 × 10^3 cells/well in complete medium onto 96‐well plates. Here, the non‐tumoral human embryonic kidney (HEK293) epithelial cells have been utilized as a control cell line to compare the IC50 values of the compounds between cancerous and non‐cancerous cell lines with a big therapeutic window. The use of HEK293 cells as compared to other non‐cancerous cell lines are easy to maintain in culture and the results obtained from HEK293 are highly reproducible and consistent.[27] Briefly, the cells were incubated at 37°C for 12 h to attain morphology. After 12 h, cells were serum starved by replacing the complete media with media containing 2% FBS to synchronize the cells. Post‐12 h of synchronization, cells were treated with an increasing concentration (0.1, 1, 10, 100 μM) of all the compounds (1a, 1b, 1c, 1d, 1e, 1f, 1g, 1h, 1i, 1j, 1k). Separately, TNBC cells were treated with increasing concentration (0.01, 0.1, 1 μM) of Doxorubicin (Sigma‐Aldrich, St Louis, MO, USA) in presence of the selected compounds (1c, 1e, 1g, 1h, 1j, and 1k) at 5 μM concentration or combination of selected compounds (1c, 1e, 1g, 1h, 1j, and 1k) at increasing concentration (1, 2.5, 5, 10 μM) in presence of Doxorubicin (0.01 μM) for 48 h. In addition, the CD24^+‐breast cancer cells and CD24^−/CD44^+‐breast CSC populations, being sorted by Magnetic Activated Cell Sorting (MACS) from MDA‐MB‐231 cells as described previously,[6] were also treated with increasing concentrations of Doxorubicin (0.01–1 μM), in the presence or absence of 1e (10–30 μM), or PD153035 (10 μM) (Sigma‐Aldrich, St Louis, MO, USA). MTT assay was performed to evaluate the cytotoxicity of these compounds against the TNBC cell lines, and the sorted populations as described previously.[6] All the experiments were performed thrice and the IC50 values of the compounds and Doxorubicin were calculated using GraphPad Prism software version 9 (San Diego, CA, USA). Similarly, the percent inhibition of the sorted cell populations by chemotherapeutic drug, doxorubicin in the absence/presence of potent compound 1e or standard EGFR inhibitor, PD153035 was evaluated utilizing GraphPad Prism Version 9 (San Diego, CA, USA).

For another assay, the system named is HEK‐293. As to the kind of experiment: MTT cytotoxicity assay in control cell line HEK-293. In kind it is cell-based, human. Particulars: non-tumoral control cell line, read-out: IC50 (μM) in HEK‐293 (mean ± SD). The protocol:
as §1, §2
(Tetrazolium dyes change colour on reduction, which living cells bring about.)

Assay [2] has as its system MDA‐MB‐468. As to the kind of experiment: MTT cytotoxicity assay in MDA-MB-468. In kind it is cell-based, human. The settings on record: for IC50: 48 h, read-out: IC50 (μM) in MDA‐MB‐468 (mean ± SD); for decrease in the IC50 of Doxorubicin in the presence of the compound: MDA-MB-468, versus Doxorubicin alone. The protocol:
as §1, §2

The test system of assay [3] is Bax and Cytochrome‐C in MDA‐MB‐231 cells. As to the kind of experiment: Gene expression of apoptotic genes, semi-quantitative RT-PCR. The format is cell-based, human. Particulars: MDA-MB-231, doxorubicin + compound 5 μM, 24 h. The protocol: Briefly, the cells were incubated at 37°C with serum starvation followed by culturing as described above. […] Briefly, the template RNA (1 μg) was utilized for cDNA synthesis using a First‐strand cDNA synthesis kit (Thermo Scientific, USA) according to the manufacturer's protocol. Thermal cycler (Mastercycler® nexus, Eppendorf) was used for the amplification of the expression of apoptotic genes—Bax, Bcl2, Cytochrome‐C, and target gene EGFR with the help of Dream Taq DNA Polymerase PCR Master Mix (Thermo Scientific, USA) along with human gene‐specific forward and reverse primer sequences of the apoptotic genes and EGFR (Table ST1). The expression of the target genes was normalized to the Eukaryotic 18S rRNA.

The test system of assay [4] is MDA‐MB‐231. As to the kind of experiment: Cell migration (chemotaxis), Boyden-Chamber assay. The settings on record: Doxorubicin 0.01 μM + compound 5 μM (PD153035 10 μM) vs 10% FBS and Doxorubicin alone. In kind it is cell-based, human. The protocol: (§3) TNBC cell lines—MDA‐MB‐231, MDA‐MB‐468, and the sorted CD24^+‐breast cancer cells, and CD24^−/CD44^+‐breast CSC populations from MDA‐MB‐231 [6] were seeded at a density of 1 × 10^6 cells/well to evaluate their migratory potential by Boyden‐Chamber assay. […] At the end of the treatment period, the cells were plated at a density of 5 × 10^3 cells/well in the upper chamber of the Boyden chamber assembly and 10% FBS in the lower chamber was used as a chemoattractant. Separately, the cells in the upper chamber were treated with Doxorubicin (0.01–0.1 μM) alone or with the potential EGFR inhibitors (compounds—1c, 1e, 1g, 1h, 1j, and 1k (5 μM) based on their low IC50 values) or a commercial EGFR inhibitor, PD153035 (10 μM) and incubated for 4 h followed by fixation and staining as described previously.[28], [29]

For assay [5], the system named is MDA‐MB‐468. As to the kind of experiment: Cell migration (chemotaxis), Boyden-Chamber assay. Particulars: Doxorubicin 0.01 μM + compound 5 μM (PD153035 10 μM) vs 10% FBS and Doxorubicin alone. The format is cell-based, human. The protocol:
as §3

Assay [6] relates to CD24^−/CD44^+‐breast CSCs xenotransplanted tumors. As to the kind of experiment: Preclinical orthotopic xenograft murine tumor model (tumor size, weight, H&E histology). In kind it is in vivo, C57BL/6 mice. The settings on record: doxorubicin high dose 10 mg/kg intratumoral vs untreated breast CSCs transplanted group. The protocol: Animal studies have been carried out with the prior approval of the Institutional Animal Ethics Committee (IICT/IAEC/025/2023). C57BL/6 female mice of age 6–8 weeks (N = 35) were initially immunosuppressed with cyclophosphamide (50 mg/kg of body weight, i.p) on alternate days for 2 weeks. For generating a preclinical orthotopic xenograft tumor model, 2 × 10^6 GFP expressing sorted stable CD24^+‐breast cancer cells and CD24^−/CD44^+‐breast CSCs were orthotopically xeno‐transplanted subcutaneously at the fourth mammary fat pad of immune‐suppressed mice (n = 5/group). Subsequently, intratumoral administration of Doxorubicin at a low dose (2.5 mg/kg of body weight), high dose (10 mg/kg of body weight), and/or combinatorial treatment of the potent EGFR inhibitor, compound 1e (50 mg/kg of body weight) or the commercial EGFR inhibitor, PD153035 (50 mg/kg of body weight) with a low dose of doxorubicin was performed to the palpable tumors of breast CSCs at day‐3 post‐transplantation.
Euthanization of mice was performed on day 14 post‐transplantation and tumor tissues were collected for histological and immunohistochemical analysis. Histological differences in tumor tissues were evaluated using hematoxylin and eosin staining (H&E).[28], [30]

The IC50 is the concentration that gives 50% inhibition. As a reminder, the inhibition is the share of the control response that was lost under treatment.

Take `c1ccc2c(C(c3c[nH]c4ccccc34)c3c[nH]c4ccccc34)c[nH]c2c1` [1b]: the IC50 in the assay with MDA‐MB‐231 [1] (compound alone, MTT) came out at 22.1 ± 1.96 µM; in the assay on HEK‐293 (compound alone) it was 231 ± 15.9 µM; in the assay with MDA‐MB‐468 [2] (compound alone, MTT) it was 90.8 ± 7.87 µM.
As for `Oc1ccc(C(c2c[nH]c3ccccc23)c2c[nH]c3ccccc23)cc1` [1c], in assay [3], the “expression of pro‐apoptotic genes Bax and Cytochrome‐C” value (shortened to “expression”) is “marked increase”. Also, the migratory potential entry in the assay on MDA‐MB‐231 [4] and in the assay on MDA‐MB‐468 [5] was “significant decrease” each time. The half-maximal inhibitory concentration (IC50) in the assay with MDA‐MB‐231 [1] (compound alone, MTT) amounted to 30.5 ± 2.93 µM; with HEK‐293 (compound alone), 127 ± 16.8 µM; with MDA‐MB‐468 [2] (compound alone, MTT) it was 25 ± 2.41 µM. Moreover, in the assay on MDA‐MB‐468 [2], the “decrease in the IC50 of Doxorubicin in the presence of the compound” value (shortened to “decrease in the IC50 of Doxorubicin”) is given as 10 fold.
Regarding `c1ccc(C(c2c[nH]c3ccccc23)c2c[nH]c3ccccc23)nc1` [1d], the IC50 in the assay on MDA‐MB‐231 [1] (compound alone, MTT) was determined as 44.4 ± 2.11 µM; in the assay on HEK‐293 (compound alone), 219 ± 11.6 µM; in the assay with MDA‐MB‐468 [2] (compound alone, MTT) it was 47.6 ± 5.99 µM.
Taken in the same sequence, the figures for `CN(C)c1ccc(C(c2c[nH]c3ccccc23)c2c[nH]c3ccccc23)cc1` [1f] were 73 ± 1.13 µM, at least 1000 µM and 130 ± 7.76 µM.
Take `c1ccc2c(C(c3c[nH]c4ccccc34)C(c3c[nH]c4ccccc34)c3c[nH]c4ccccc34)c[nH]c2c1` [1g]: the “expression” value in assay [3] is listed as “marked increase”. For the same molecule, the migratory potential result in the assay on MDA‐MB‐231 [4] and in the assay on MDA‐MB‐468 [5] was “significant decrease” throughout. In addition, the IC50 in the assay on MDA‐MB‐231 [1] (compound alone, MTT) is at least 1000 µM; in the assay on HEK‐293 (compound alone) it was at least 1000 µM; with MDA‐MB‐468 [2] (compound alone, MTT), 29.6 ± 6.04 µM. Also, in the assay with MDA‐MB‐468 [2], the “decrease in the IC50 of Doxorubicin” value was 10 fold.
On to `COc1cc(C(c2c[nH]c3ccccc23)c2c[nH]c3ccccc23)ccc1O` [1j], for which, in assay [3], the “expression” value was “marked increase”. The concentration for half-maximal inhibition (IC50) in the assay on MDA‐MB‐231 [1] (compound alone, MTT) worked out at 114 ± 1.25 µM; in the assay on HEK‐293 (compound alone), 327 ± 20.7 µM; in the assay on MDA‐MB‐468 [2] (compound alone, MTT) it was 68.4 ± 5.51 µM. Moreover, in the assay with MDA‐MB‐468 [2], the “decrease in the IC50 of Doxorubicin” value is on record as 10 fold.
For `c1ccc2c(C(c3ccc(C(c4c[nH]c5ccccc45)c4c[nH]c5ccccc45)cc3)c3c[nH]c4ccccc34)c[nH]c2c1` [1k, 1,4‐bis(di(1H‐indol‐3‐yl)methyl)benzene], the “expression” value in assay [3] is “marked increase”. In addition, the IC50 in the assay with MDA‐MB‐231 [1] (Homo sapiens, MDA-MB-231, 48 h, compound alone, MTT) stood at 14.7 ± 1.36 µM; with HEK‐293 (Homo sapiens, HEK293, compound alone) it was 235 ± 12.5 µM; in the assay with MDA‐MB‐468 [2] (Homo sapiens, MDA-MB-468, compound alone, MTT), 20.4 ± 2.41 µM. Besides, in the assay with MDA‐MB‐468 [2], the “decrease in the IC50 of Doxorubicin” value was found to be 10 fold.
In the case of `COc1cccc2c1C(=O)c1c(O)c3c(c(O)c1C2=O)C[C@@](O)(C(=O)CO)C[C@@H]3O[C@H]1C[C@H](N)[C@H](O)[C@H](C)O1` [Doxorubicin, reference compound], the “tumor size and weight” value in assay [6] is given as “significantly lower”. Besides, the IC50 amounted to 0.1 µM with MDA‐MB‐231 [1] (Homo sapiens, MDA-MB-231, 48 h, IC50 of doxorubicin alone or in presence of compound at 5 μM); 0.11 ± 0.01 µM in the assay on MDA‐MB‐231 [1] (IC50 of doxorubicin alone or in presence of compound at 5 μM); 0.4 ± 0.008 µM with MDA‐MB‐468 [2] (Homo sapiens, MDA-MB-468, IC50 of doxorubicin alone or in presence of compound at 5 μM). Besides, the inhibition at 0.01 µM with MDA‐MB‐231 [1] (Homo sapiens, MDA-MB-231, Doxorubicin 0.01 µM alone, read-out: Percent inhibition (%) in MDA-MB-231 (Mean ± SEM)) was 21.1 ± 0.701%; in the assay on MDA‐MB‐468 [2] (Homo sapiens, MDA-MB-468, Doxorubicin 0.01 µM alone, read-out: Percent inhibition (%) in MDA-MB-468 (Mean ± SEM)), 19.1 ± 1.08%.
